Assay results: US20080107623A1, “Inhibitors of Hepatitis C Virus” (Bristol-Myers Squibb Company, priority 2006, published 2008)

How the values were obtained:
[1] = system: HCV replicon in HUH-7 cells; assay: HCV replicon FRET assay; type: cell-based, HCV strain 1b; conditions: Hepatitis C virus, Huh-7; HCV replicon; which replicon assay not stated; read-out: EC50 Activity Range
Text: An HCV replicon whole cell system was established as described by Lohmann V, Korner F, Koch J, Herian U, Theilmann L, Bartenschlager R., Science 285(5424):110-3 (1999). This system enabled us to evaluate the effects of our HCV Protease compounds on HCV RNA replication. Briefly, using the HCV strain 1b sequence described in the Lohmann paper (Assession number: AJ238799), an HCV cDNA was synthesized by Operon Technologies, Inc. (Alameda, Calif.), and the full-length replicon was then assembled in plasmid pGem9zf(+) (Promega, Madison, Wis.) using standard molecular biology techniques. The replicon consists of (i) the HCV 5′ UTR fused to the first 12 amino acids of the capsid protein, (ii) the neomycin phosphotransferase gene (neo), (iii) the IRES from encephalomyocarditis virus (EMCV), and (iv) HCV NS3 to NS5B genes and the HCV 3′ UTR. Plasmid DNAs were linearized with ScaI and RNA transcripts were synthesized in vitro using the T7 MegaScript transcription kit (Ambion, Austin, Tex.) according to manufacturer's directions. In vitro transcripts of the cDNA were transfected into the human hepatoma cell line, HUH-7. […] Resulting cell lines were characterized for positive and negative strand RNA production and protein production over time.
The HCV replicon FRET assay was developed to monitor the inhibitory effects of compounds described in the disclosure on HCV viral replication. HUH-7 cells, constitutively expressing the HCV replicon, were grown in Dulbecco's Modified Eagle Media (DMEM) (Gibco-BRL) containing 10% Fetal calf serum (FCS) (Sigma) and 1 mg/ml G418 (Gibco-BRL). Cells were seeded the night before (1.5×10^4 cells/well) in 96-well tissue-culture sterile plates. Compound and no compound controls were prepared in DMEM containing 4% FCS, 1:100 Penicillin/Streptomysin (Gibco-BRL), 1:100 L-glutamine and 5% DMSO in the dilution plate (0.5% DMSO final concentration in the assay). Compound/DMSO mixes were added to the cells and incubated for 4 days at 37° C. After 4 days, cells were first assessed for cytotoxicity using alamar Blue (Trek Diagnotstic Systems) for a CC50 reading. The toxicity of compound (CC50) was determined by adding 1/10th volume of alamar Blue to the media incubating the cells. After 4 hours, the fluorescence signal from each well was read, with an excitation wavelength at 530 nm and an emission wavelength of 580 nm, using the Cytofluor Series 4000 (Perspective Biosystems). Plates were then rinsed thoroughly with Phosphate-Buffered Saline (PBS) (3 times 150 μl). The cells were lysed with 25 μl of a lysis assay reagent containing an HCV protease substrate (5× cell Luciferase cell culture lysis reagent (Promega #E153A) diluted to 1× with distilled water, NaCl added to 150 mM final, the FRET peptide substrate (as described for the enzyme assay above) diluted to 10 μM final from a 2 mM stock in 100% DMSO. […]. The plate was then placed into the Cytofluor 4000 instrument which had been set to 340 nm excitation/490 nm emission, automatic mode for 21 cycles and the plate read in a kinetic mode. EC50 determinations were carried out as described for the IC50 determinations.

[2] = biological target: T1, HCV NS3/4A protease complex, BMS strain (UniProt P27958, species not given/STRAIN_BMS); assay: FRET peptide assay to monitor HCV NS3/4A proteolytic activity (BMS strain); type: biochemical, HCV genotype 1a; conditions: NS3/4A BMS strain; read-out: IC50 Activity Range
T1 construct: said of H77 and J4L6S, not expressly of BMS; These are given for the H77 and J4L6S constructs only
Text: HCV NS3 protease complexes, derived from the BMS strain, H77 strain or J4L6S strain, were generated, as described below. These purified recombinant proteins were generated for use in a homogeneous assay (see below) to provide an indication of how effective compounds of the present disclosure would be in inhibiting HCV NS3 proteolytic activity.
Serum from an HCV-infected patient was obtained from Dr. T. Wright, San Francisco Hospital. An engineered full-length cDNA (compliment deoxyribonucleic acid) template of the HCV genome (BMS strain) was constructed from DNA fragments obtained by reverse transcription-PCR (RT-PCR) of serum RNA (ribonucleic acid) and using primers selected on the basis of homology between other genotype 1a strains. From the determination of the entire genome sequence, a genotype 1a was assigned to the HCV isolate according to the classification of Simmonds et al. (See P Simmonds, K A Rose, S Graham, S W Chan, F McOmish, B C Dow, E A Follett, P L Yap and H Marsden, J. Clin. Microbiol., 31(6), 1493-1503 (1993)). […] The infectious clones, H77 (1a genotype) and J4L6S (1b genotype) were obtained from R. Purcell (NIH) and the sequences are published in Genbank (AAB67036, see Yanagi, M., Purcell, R. H., Emerson, S. U. and Bukh, J. Proc. Natl. Acad. Sci. U.S.A. 94(16),8738-8743 (1997); AF054247, see Yanagi, M., St Claire, M., Shapiro, M., Emerson, S. U., Purcell, R. H. and Bukh, J, Virology 244 (1), 161-172. (1998)).
NS3/4A protease complex-containing fractions were pooled and loaded on a desalting column Superdex-S200 pre-equilibrated with buffer D (25 mM HEPES, pH 7.5, 20% glycerol, 300 mM NaCl, 0.2% Triton X-100, 10 mM βME). Sample was loaded at a flow rate of 1 mL/min. NS3/4A protease complex-containing fractions were pooled and concentrated to approximately 0.5 mg/ml. The purity of the NS3/4A protease complexes, derived from the BMS, H77 and J4L6S strains, were judged to be greater than 90% by SDS-PAGE and mass spectrometry analyses. The enzyme was stored at −80° C., thawed on ice and diluted prior to use in assay buffer.
The purpose of this in vitro assay was to measure the inhibition of HCV NS3 protease complexes, derived from the BMS strain, H77 strain or J4L6S strain, as described above, by compounds of the present disclosure. This assay provides an indication of how effective compounds of the present disclosure would be in inhibiting HCV NS3 proteolytic activity.
In order to monitor HCV NS3/4A protease activity, an NS3/4A peptide substrate was used. The substrate was RET SI (Resonance Energy Transfer Depsipeptide Substrate; AnaSpec, Inc. cat #22991) (FRET peptide), described by Taliani et al. in Anal. Biochem. 240(2):60-67 (1996). […] The peptide also contains a fluorescence donor, EDANS, near one end of the peptide and an acceptor, DABCYL, near the other end. The fluorescence of the peptide is quenched by […] resonance energy transfer (RET) between the donor and the acceptor, but as the NS3 protease cleaves the peptide the products are released from RET quenching and the fluorescence of the donor becomes apparent.
The peptide substrate was incubated with one of the three recombinant NS3/4A protease complexes, in the absence or presence of a compound of the present disclosure. The inhibitory effects of a compound was determined by monitoring the formation of fluorescent reaction product in real time using a Cytofluor Series 4000. […]

T1 sequence (P27958 1027-1657, change not shown, one chain of several): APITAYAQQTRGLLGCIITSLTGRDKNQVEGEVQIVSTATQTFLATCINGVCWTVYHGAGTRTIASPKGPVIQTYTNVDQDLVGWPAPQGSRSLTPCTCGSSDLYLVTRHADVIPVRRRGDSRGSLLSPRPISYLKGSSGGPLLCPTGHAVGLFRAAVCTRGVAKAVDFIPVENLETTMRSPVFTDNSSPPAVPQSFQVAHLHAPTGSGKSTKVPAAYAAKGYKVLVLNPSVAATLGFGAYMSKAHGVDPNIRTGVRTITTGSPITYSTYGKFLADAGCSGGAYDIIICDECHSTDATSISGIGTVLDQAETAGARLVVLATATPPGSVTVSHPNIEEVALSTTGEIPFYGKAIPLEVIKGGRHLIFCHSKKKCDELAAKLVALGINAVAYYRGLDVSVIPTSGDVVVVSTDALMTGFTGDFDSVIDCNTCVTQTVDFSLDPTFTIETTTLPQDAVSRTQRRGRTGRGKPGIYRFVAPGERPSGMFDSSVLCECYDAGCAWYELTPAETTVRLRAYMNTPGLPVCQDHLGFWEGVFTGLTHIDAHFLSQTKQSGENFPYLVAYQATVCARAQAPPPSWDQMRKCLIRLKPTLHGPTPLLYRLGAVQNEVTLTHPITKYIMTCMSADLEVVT

Compound | EC50 [1] | IC50 [2] | melting point
CC(C)(C)OC(=O)N[C@H]1CCCCC/C=C\[C@@H]2C[C@@]2(C(=O)NS(=O)(=O)C2CC2)NC(=O)[C@@H]2C[C@@H](Oc3ccccn3)CN2C1=O [Compound 1] | 100 to 1000 nM | < 100 nM | –
CC(C)(C)OC(=O)N[C@H]1CCCCC/C=C\[C@@H]2C[C@@]2(C(=O)NS(=O)(=O)C2CC2)NC(=O)[C@@H]2C[C@@H](Oc3ccc([N+](=O)[O-])cc3)CN2C1=O [Compound 2] | > 1000 nM | < 100 nM | –
CC(C)(C)OC(=O)N[C@H]1CCCOC/C=C\[C@@H]2C[C@@]2(C(=O)NS(=O)(=O)C2CC2)NC(=O)[C@@H]2C[C@@H](OCc3ccccc3)CN2C1=O [Compound 5, (1S,4R,6S,14S,18R,7-cis)-18-benzyloxy-14-tert-butoxycarbonylamino-4-cyclopropanesulfonylaminocarbonyl-2,15-dioxo-3,16-diaza-10-oxatricyclo[14.3.0.0^4,6]nonadec-7-ene] | > 1000 nM | < 100 nM | 147 to 149 °C
CC(C)(C)OC(=O)N[C@H]1CCCOC/C=C\[C@@H]2C[C@@]2(C(=O)NS(=O)(=O)C2CC2)NC(=O)[C@@H]2C[C@@H](OC(C)(C)C)CN2C1=O [Compound 6, (1S,4R,6S,14S,18R,7-cis)-18-tert-butoxy-14-tert-butoxycarbonylamino-4-cyclopropanesulfonylaminocarbonyl-2,15-dioxo-3,16-diaza-10-oxatricyclo[14.3.0.0^4,6]nonadec-7-ene] | > 1000 nM | 100 to 1000 nM | –
